# The supplement of paper PMC10307832
# What was measured:
# Test in all cases: relative viability (nuclei count vs DMSO), 5 days (fraction); higher = more cells survive
# IMD-0354 + Olaparib = compound: O=C(Nc1cc(C(F)(F)F)cc(C(F)(F)F)c1)c1cc(Cl)ccc1O [IMD-0354] + O=C(c1cc(Cc2n[nH]c(=O)c3ccccc23)ccc1F)N1CCN(C(=O)C2CC2)CC1 [Olaparib] (partner 8 µM)
# Outline: (§1)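 One day after seeding in 1536-well plates, lung cancer cell lines were dosed by pin tool. Dosing was either single-drug or a fixed anchor-drug dose plus five library-drug doses (not always all listed) in √10 steps. After 5 days, nuclei were stained in one fix-and-stain step and counted on 4× images, and relative viability is the nuclei count of treated wells over that of vehicle wells, given as the median of duplicate plates.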
# CX-5461 + Dasatinib = compound: Cc1cnc(CNC(=O)c2c(=O)c3ccc(N4CCCN(C)CC4)nc3n3c2sc2ccccc23)cn1 [CX-5461] + Cc1nc(Nc2ncc(C(=O)Nc3c(C)cccc3Cl)s2)cc(N2CCN(CCO)CC2)n1 [Dasatinib] (partner 0.075 µM)
# Outline: as §1
# IMD-0354 + Pictilisib = compound: O=C(Nc1cc(C(F)(F)F)cc(C(F)(F)F)c1)c1cc(Cl)ccc1O [IMD-0354] + CS(=O)(=O)N1CCN(Cc2cc3nc(-c4cccc5[nH]ncc45)nc(N4CCOCC4)c3s2)CC1 [Pictilisib] (partner 1 µM)
# Outline: as §1
# CX-5461 + Olaparib = compound: Cc1cnc(CNC(=O)c2c(=O)c3ccc(N4CCCN(C)CC4)nc3n3c2sc2ccccc23)cn1 [CX-5461] + O=C(c1cc(Cc2n[nH]c(=O)c3ccccc23)ccc1F)N1CCN(C(=O)C2CC2)CC1 [Olaparib] (partner 8 µM)
# Outline: as §1
cell line,measurement,setting,value
UMC-11,relative viability,IMD-0354 + Olaparib; first compound 0.04 µM,0.368
same,relative viability,IMD-0354 + Olaparib; first compound 0.1265 µM,0.332
same,relative viability,IMD-0354 + Olaparib; first compound 0.4 µM,0.278
same,relative viability,IMD-0354 + Olaparib; first compound 1.265 µM,0.182
same,relative viability,IMD-0354 + Olaparib; first compound 4 µM,0.178
same,relative viability,CX-5461 + Dasatinib; first compound 0.01 µM,0.446
same,relative viability,CX-5461 + Dasatinib; first compound 0.03162 µM,0.519
same,relative viability,CX-5461 + Dasatinib; first compound 0.1 µM,0.364
same,relative viability,CX-5461 + Dasatinib; first compound 0.3162 µM,0.39
same,relative viability,CX-5461 + Dasatinib; first compound 1 µM,0.246
same,relative viability,IMD-0354 + Pictilisib; first compound 0.04 µM,0.939
same,relative viability,IMD-0354 + Pictilisib; first compound 0.1265 µM,0.868
same,relative viability,IMD-0354 + Pictilisib; first compound 0.4 µM,0.542
same,relative viability,IMD-0354 + Pictilisib; first compound 1.265 µM,0.187
same,relative viability,IMD-0354 + Pictilisib; first compound 4 µM,0.223
same,relative viability,CX-5461 + Olaparib; first compound 0.01 µM,0.323
same,relative viability,CX-5461 + Olaparib; first compound 0.03162 µM,0.369
same,relative viability,CX-5461 + Olaparib; first compound 0.1 µM,0.321
same,relative viability,CX-5461 + Olaparib; first compound 0.3162 µM,0.395
same,relative viability,CX-5461 + Olaparib; first compound 1 µM,0.267
